Results from ChEMBL document CHEMBL3046681, “Synthesis and insecticidal evaluation of propesticides of benzoylphenylureas” (2005).

How the values were obtained:
Format in all cases: functional
Mythimna separata [1] = experiment: Insecticidal activity against fourth instar larvae of Mythimna separata (Oriental armyworm) in compound treated corn leaves assessed as mortality at 5 mg/kg by foliar application
Mythimna separata [2] = experiment: Insecticidal activity against fourth instar larvae of Mythimna separata (Oriental armyworm) in compound treated corn leaves assessed as mortality at 50 mg/kg by foliar application
Mythimna separata [3] = experiment: Insecticidal activity against fourth instar larvae of Mythimna separata (Oriental armyworm) in compound treated corn leaves assessed as mortality at 0.2 mg/kg by foliar application
Mythimna separata [4] = experiment: Insecticidal activity against fourth instar larvae of Mythimna separata (Oriental armyworm) in compound treated corn leaves assessed as mortality at 10 mg/kg by foliar application
Mythimna separata [5] = experiment: Insecticidal activity against fourth instar larvae of Mythimna separata (Oriental armyworm) in compound treated corn leaves assessed as mortality at 0.5 mg/kg by foliar application
Mythimna separata [6] = experiment: Insecticidal activity against fourth instar larvae of Mythimna separata (Oriental armyworm) in compound treated corn leaves assessed as mortality at 200 mg/kg by foliar application
Mythimna separata [7] = experiment: Insecticidal activity against fourth instar larvae of Mythimna separata (Oriental armyworm) in compound treated corn leaves assessed as mortality at 100 mg/kg by foliar application
Mythimna separata [8] = experiment: Insecticidal activity against fourth instar larvae of Mythimna separata (Oriental armyworm) in compound treated corn leaves assessed as mortality at 25 mg/kg by foliar application
Mythimna separata [9] = experiment: Insecticidal activity against fourth instar larvae of Mythimna separata (Oriental armyworm) in compound treated corn leaves assessed as mortality at 500 mg/kg by foliar application
Mythimna separata [10] = experiment: Insecticidal activity against fourth instar larvae of Mythimna separata (Oriental armyworm) in compound treated corn leaves assessed as mortality at 1 mg/kg by foliar application
Mythimna separata [11] = experiment: Insecticidal activity against fourth instar larvae of Mythimna separata (Oriental armyworm) in compound treated corn leaves assessed as mortality at 0.1 mg/kg by foliar application

Row | SMILES | mortality at 5 mg/kg (Mythimna separata [1]) [%] | mortality at 50 mg/kg (Mythimna separata [2]) [%] | mortality at 0.2 mg/kg (Mythimna separata [3]) [%] | mortality at 10 mg/kg (Mythimna separata [4]) [%] | mortality at 0.5 mg/kg (Mythimna separata [5]) [%] | mortality at 200 mg/kg (Mythimna separata [6]) [%] | mortality at 100 mg/kg (Mythimna separata [7]) [%] | mortality at 25 mg/kg (Mythimna separata [8]) [%] | mortality at 500 mg/kg (Mythimna separata [9]) [%] | mortality at 1 mg/kg (Mythimna separata [10]) [%] | mortality at 0.1 mg/kg (Mythimna separata [11]) [%]
1 | CC(C)(C)OC(=O)N(C(=O)NC(=O)c1c(F)cccc1F)c1ccc(Cl)cc1 | 95 | 100 | 0 | 100 | 0 | 100 | 100 | 100 | 100 | 5 | –
2 | CCOC(=O)N(C(=O)NC(=O)c1c(F)cccc1F)c1ccc(Cl)cc1 | 0 | 100 | 0 | 0 | 0 | 100 | 100 | 100 | 100 | 0 | –
3 | O=C(NC(=O)c1c(F)cccc1F)Nc1ccc(Cl)cc1 [DIFLUBENZURON] | 100 | 100 | 45 | 100 | 100 | 100 | 100 | 100 | 100 | 100 | 0
4 | CCOC(=O)N(C)SN(C(=O)NC(=O)c1c(F)cccc1F)c1ccc(C(F)(F)F)cc1 | 100 | 100 | 85 | 100 | 95 | 100 | 100 | 100 | 100 | 100 | 0
5 | CC(C)(C)OC(=O)N(C(=O)NC(=O)c1c(F)cccc1F)c1ccc(C(F)(F)F)cc1 | 75 | 100 | 0 | 100 | 0 | 100 | 100 | 100 | 100 | 0 | –
6 | CCOC(=O)N(C)SN(C(=O)NC(=O)c1c(F)cccc1F)c1ccc(Cl)cc1 | 100 | 100 | 5 | 100 | – | 100 | 100 | 100 | 100 | 20 | 0
7 | CCOC(=O)N(C(=O)NC(=O)c1c(F)cccc1F)c1ccc(C(F)(F)F)cc1 | 0 | 100 | 0 | 0 | 0 | 100 | 100 | 5 | 100 | 0 | –
8 | O=C(NC(=O)N(C(=O)OCc1ccccc1)c1ccc(Cl)cc1)c1c(F)cccc1F | 0 | 0 | 0 | 0 | 0 | 100 | 70 | 0 | 100 | 0 | –
9 | O=C(NC(=O)N(C(=O)OCc1ccccc1)c1ccc(C(F)(F)F)cc1)c1c(F)cccc1F | 0 | 0 | 0 | 0 | 0 | 30 | 0 | 0 | 100 | 0 | –
10 | CN(SN(C(=O)NC(=O)c1c(F)cccc1F)c1ccc(C(F)(F)F)cc1)C(=O)OC(C)(C)C | 100 | 100 | 35 | 100 | 100 | 100 | 100 | 100 | 100 | 100 | 0
11 | CN(SN(C(=O)NC(=O)c1c(F)cccc1F)c1ccc(Cl)cc1)C(=O)OCc1ccccc1 | 100 | 100 | 0 | 100 | 55 | 100 | 100 | 100 | 100 | 85 | 0
